# Earlier results as cited in publication PMC2674521 (Journal of pharmaceutical sciences, 2009).
# Where two headings read alike, the source gives them in different places.
# Columns and labels:
# [1] = test system: HSA; settings: cited from earlier work
# [2] = no reference given; cited from earlier work
# [3] = test system: RSA; settings: ref 46; cited from earlier work
smiles,measurement,setting,value
CC1(C)S[C@@H]2[C@H](NC(=O)Cc3ccccc3)C(=O)N2[C@H]1C(=O)O [Benzylpenicillin],affinity constant for the IIA site of HSA,[1]; ref 10,1200 M⁻¹
same,affinity (Ka) for the IIA site of HSA,[1]; ref 40-42,1200 M⁻¹
same,affinity for site IIA of HSA (Ka),[1]; reference not given,1200 M⁻¹
same,extent of protein binding in human plasma,[2],50%
Cn1nnnc1SCC1=C(C(=O)O)N2C(=O)[C@@H](NC(=O)[C@H](O)c3ccccc3)[C@H]2SC1 [Cephmandole],binding to HSA (Ka),[1]; ref 32,1200 M⁻¹
NS(=O)(=O)c1cc(C(=O)O)c(NCc2ccco2)cc1Cl [Furosemide],binding to RSA,[3],≤ 99.1%
CC(C)Cc1ccc(C(C)C(=O)O)cc1 (stereo not drawn) [Ibuprofen],affinity (Ka) for the IIIA site of HSA,[1]; ref 10,2.7e+06 M⁻¹
same,affinity for the IIIA site of HSA (Ka),[1]; reference not given,2.7e+06 M⁻¹
N[C@@H](Cc1c[nH]c2ccccc12)C(=O)O [L-tryptophan],affinity (Ka) for the IIIA site of HSA,[1]; ref 29-31,10000 M⁻¹
